Where two headings read alike, the source gives them in different places.
How the values were obtained:
PfCRT^Dd2 [1] = molecular target: T1, PfCRT^Dd2 (Plasmodium falciparum, UniProt Q9N623, A220S/I356T/K76T/M74I/N326S/N75E/Q271E/R371I); test: [3H]CQ uptake into Xenopus oocytes, cis-inhibition by unlabelled solute; assay type: cell-based; conditions: read-out: [3H]CQ transport (% PfCRTDd2 control), cis-inhibition, PfCRTDd2; SEM
In short: (§1)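 Radioactivity accumulated per oocyte, read by liquid scintillation after 10% SDS lysis, served as the uptake measure. Incubations ran 1.5 h at 27.5 °C in ND96 at pH 5.5, matching digestive-vacuole acidity.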

PfCRT^3D7 [2] = molecular target: T2, PfCRT^3D7 (Plasmodium falciparum, UniProt Q8IBZ9); test: cell-based; assay type: cell-based
T2 sequence (Q8IBZ9 59-398): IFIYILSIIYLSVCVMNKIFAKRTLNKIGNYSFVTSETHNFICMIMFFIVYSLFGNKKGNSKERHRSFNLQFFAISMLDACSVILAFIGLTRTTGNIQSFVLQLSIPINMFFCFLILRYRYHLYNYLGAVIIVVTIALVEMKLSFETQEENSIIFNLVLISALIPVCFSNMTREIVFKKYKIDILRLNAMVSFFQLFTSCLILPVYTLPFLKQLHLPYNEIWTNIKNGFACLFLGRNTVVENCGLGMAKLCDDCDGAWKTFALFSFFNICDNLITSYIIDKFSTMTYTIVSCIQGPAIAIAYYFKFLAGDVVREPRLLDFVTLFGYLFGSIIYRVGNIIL
In short: (§2)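 Transport measured in Xenopus oocytes expressing the transporters, 1.5 h at 27.5 °C in ND96 pH 5.5 unless noted. For trans-stimulation, VF-6 injected in 25 nL ND96 at pH 5.0–7.0 or Na^+-free (choline) buffer; intracellular levels based on ~400 nL oocyte volume. Ten oocytes per treatment, ≥4 experiments.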

PfNT1 = molecular target: T3, PfNT1 (Plasmodium falciparum, UniProt Q8IDM6); test: cell-based; assay type: cell-based; conditions: for activity at 5000 µM: total [3H]CQ transport
T3 construct: expressed in transfected cells; host or cells: Xenopus laevis oocytes (stage V-VI), cRNA-injected
T3 sequence (Q8IDM6 whole entry): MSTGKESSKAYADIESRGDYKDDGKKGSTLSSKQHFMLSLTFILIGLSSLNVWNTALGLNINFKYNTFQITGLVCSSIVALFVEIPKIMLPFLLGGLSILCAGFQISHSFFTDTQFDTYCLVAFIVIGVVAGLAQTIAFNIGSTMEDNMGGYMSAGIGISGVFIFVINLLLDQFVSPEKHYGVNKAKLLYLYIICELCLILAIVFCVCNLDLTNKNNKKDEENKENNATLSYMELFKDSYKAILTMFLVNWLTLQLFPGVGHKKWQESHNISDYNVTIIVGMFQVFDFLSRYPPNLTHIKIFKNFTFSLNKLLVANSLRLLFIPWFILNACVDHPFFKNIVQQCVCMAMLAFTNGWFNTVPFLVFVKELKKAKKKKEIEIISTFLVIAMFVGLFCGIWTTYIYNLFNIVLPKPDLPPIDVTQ
In short: as §2

PfCRT^Ecu1110 = PfCRT^Ecu1110 (Plasmodium falciparum, UniProt Q9N623, A220S/I356L/K76T/N326D); test: cell-based; assay type: cell-based; conditions: […]
Chain of PfCRT^Ecu1110 (Q9N623 whole entry A220S/I356L/K76T/N326D): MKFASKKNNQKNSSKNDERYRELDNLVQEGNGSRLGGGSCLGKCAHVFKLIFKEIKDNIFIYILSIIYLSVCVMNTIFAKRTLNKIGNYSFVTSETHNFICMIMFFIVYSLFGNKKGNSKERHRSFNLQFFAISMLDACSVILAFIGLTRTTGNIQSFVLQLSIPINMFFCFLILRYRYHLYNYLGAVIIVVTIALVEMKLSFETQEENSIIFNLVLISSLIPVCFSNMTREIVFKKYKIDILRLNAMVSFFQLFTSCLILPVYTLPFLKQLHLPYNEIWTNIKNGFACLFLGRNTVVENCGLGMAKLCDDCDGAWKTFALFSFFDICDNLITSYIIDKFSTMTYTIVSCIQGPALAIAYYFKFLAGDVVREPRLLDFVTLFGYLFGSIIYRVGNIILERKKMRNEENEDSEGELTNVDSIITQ
In short: as §2

PfCRT^Dd2 [3] = molecular target: T1, PfCRT^Dd2; test: cell-based; assay type: cell-based; conditions: […]; for activity at 45000 µM: [test solute]i = 45 mM (30 mM for some solutes due to solubility)
In short: as §2

PfCRT^3D7 [4] = molecular target: T2, PfCRT^3D7; test: cell-based; assay type: cell-based; conditions: total [3H]CQ transport; for inhibition at 500 µM: [test solute] = 0.5 mM; for inhibition at 1000 µM: [test solute] = 1 mM; for inhibition at 2000 µM: [test solute] = 2 mM
In short: as §1

PfCRT [5] = test: Potential co-substrates tested for influx of VF-6 via PfCRT into the oocyte; assay type: cell-based, Plasmodium falciparum; design: key: X: Compounds that have been tested as potential co-substrates but are not required for influx of VF-6 via PfCRT into the oocyte
PfCRT [6] = test: Test of solutes as potential co-substrates for influx of VF-6 via PfCRT into the oocyte; assay type: cell-based, Plasmodium falciparum; design: key: X: Compounds that have been tested as potential co-substrates but are not required for influx of VF-6 via PfCRT into the oocyte; conditions: X = tested
[7] = PfCRT3D7 oocytes, normalised to the oocyte type control, read-out: Uptake of [3H]CQ (% PfCRT3D7 control), cis-inhibition
[8] = mean ± SEM, SEM, read-out: Uptake of [3H]CQ (% PfCRTDd2 control), cis-inhibition, PfCRT3D7

T1 sequence (Q9N623 whole entry A220S/I356T/K76T/M74I/N326S/N75E/Q271E/R371I): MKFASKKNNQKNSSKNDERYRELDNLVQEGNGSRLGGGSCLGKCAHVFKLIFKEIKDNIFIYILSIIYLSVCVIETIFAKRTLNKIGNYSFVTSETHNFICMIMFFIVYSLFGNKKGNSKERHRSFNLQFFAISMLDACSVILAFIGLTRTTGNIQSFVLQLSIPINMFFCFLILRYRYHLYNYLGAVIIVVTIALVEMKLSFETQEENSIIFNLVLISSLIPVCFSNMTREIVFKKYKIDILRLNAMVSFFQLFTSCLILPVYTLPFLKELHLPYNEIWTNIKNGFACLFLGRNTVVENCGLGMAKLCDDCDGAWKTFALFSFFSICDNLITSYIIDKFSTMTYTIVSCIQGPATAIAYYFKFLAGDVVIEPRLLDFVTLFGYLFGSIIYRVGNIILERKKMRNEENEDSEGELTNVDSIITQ

NC(=O)CC[C@H](N)C(=O)O [L-glutamine]
inhibition at 1000 µM (PfCRT^Dd2 [1]): 98 ± 3.6% | activity at 5000 µM (PfCRT^3D7 [2]; PfCRT3D7 oocytes, [test solute]i = 5 mM, total [3H]CQ transport, normalised to the oocyte type control, read-out: Uptake of [3H]CQ (% PfCRT3D7 control), trans-stimulation): 99 ± 3.2% | [3H]CQ transport (% PfCRT3D7 control), trans-stimulation, PfCRT3D7 (PfCRT^3D7 [2]; SEM): 0.3 ± 0.01 % PfCRT3D7 control | activity at 5000 µM (PfCRT^3D7 [2]; [test solute]i = 5 mM (intracellular), PfCRT3D7 oocytes, normalised to oocyte type control, read-out: PfCRT-mediated [3H]CQ transport, trans-stimulation (% PfCRT3D7 control)): 97 ± 4.6% | activity at 45000 µM (PfCRT^3D7 [2]; SEM, read-out: Uptake of [3H]CQ (% PfCRTDd2 control), trans-stimulation, PfCRT3D7): 3.3 ± 0.04% | activity at 45000 µM (PfCRT^3D7 [2]; read-out: PfCRT-mediated [3H]CQ transport, trans-stimulation (% PfCRT3D7 control)): 98 ± 1% | activity at 45000 µM (PfCRT^3D7 [2]; read-out: Uptake of [3H]CQ (% PfCRT3D7 control), trans-stimulation): 100 ± 2.7% | activity at 5000 µM (PfCRT^3D7 [2]; total [3H]CQ transport, [test solute]i = 5 mM (intracellular), mean ± SEM, SEM, read-out: Uptake of [3H]CQ (% PfCRTDd2 control), trans-stimulation, PfCRT3D7): 3.3 ± 0.01% | activity at 5000 µM (PfNT1; PfNT1 oocytes, [test solute]i = 5 mM, normalised to the oocyte type control, read-out: Uptake of [3H]CQ (% PfNT1 control), trans-stimulation): 99 ± 4.2% | activity at 45000 µM (PfNT1; SEM, read-out: Uptake of [3H]CQ (% PfCRTDd2 control), trans-stimulation, PfNT1): 2.8 ± 0.02% | activity at 45000 µM (PfNT1; read-out: Uptake of [3H]CQ (% PfNT1 control), trans-stimulation): 98 ± 3.1% | activity at 5000 µM (PfNT1; [test solute]i = 5 mM (intracellular), mean ± SEM, SEM, read-out: Uptake of [3H]CQ (% PfCRTDd2 control), trans-stimulation, PfNT1): 3.2 ± 0.02% | activity at 5000 µM (PfCRT^Ecu1110; pH 5.5, read-out: PfCRT-mediated [3H]CQ transport, trans-stimulation (% PfCRTEcu1110 control), [test solute]i = 5 mM (intracellular), PfCRTEcu1110 oocytes, normalised to oocyte type control): 97 ± 3.3% | activity at 5000 µM (PfCRT^Ecu1110; pH 5.5, read-out: Uptake of [3H]CQ (% PfCRTEcu1110 control), trans-stimulation, PfCRTEcu1110 oocytes, [test solute]i = 5 mM, total [3H]CQ transport, normalised to the oocyte type control): 99 ± 2.7% | activity at 45000 µM (PfCRT^Ecu1110; pH 5.5, read-out: Uptake of [3H]CQ (% PfCRTEcu1110 control), trans-stimulation, PfCRTEcu1110 oocytes, [test solute]i = 45 mM (30 mM for some solutes due to solubility), total [3H]CQ transport, normalised to the oocyte type control): 99 ± 3.5% | activity at 5000 µM (PfCRT^Ecu1110; read-out: Uptake of [3H]CQ (% PfCRTDd2 control), trans-stimulation, PfCRTEcu1110, total [3H]CQ transport, [test solute]i = 5 mM (intracellular), mean ± SEM, SEM): 35 ± 1.3% | activity at 45000 µM (PfCRT^Ecu1110; read-out: Uptake of [3H]CQ (% PfCRTDd2 control), trans-stimulation, PfCRTEcu1110, total [3H]CQ transport, [test solute]i = 45 mM (intracellular; 30 mM for some solutes due to solubility), mean ± SEM, SEM): 35 ± 2.6% | activity at 5000 µM (PfCRT^Dd2 [3]; pH 5.5, read-out: PfCRT-mediated [3H]CQ transport, trans-stimulation (% PfCRTDd2 control), [test solute]i = 5 mM (intracellular), PfCRTDd2 oocytes, normalised to oocyte type control): 99 ± 3.4% | activity at 5000 µM (PfCRT^Dd2 [3]; pH 5.5, read-out: Uptake of [3H]CQ (% PfCRTDd2 control), trans-stimulation, PfCRTDd2, total [3H]CQ transport, [test solute]i = 5 mM (intracellular), mean ± SEM, SEM): 101 ± 2.2% | activity at 5000 µM (PfCRT^Dd2 [3]; pH 5.5, read-out: Uptake of [3H]CQ (% PfCRTDd2 control), trans-stimulation, PfCRTDd2 oocytes, [test solute]i = 5 mM, total [3H]CQ transport, normalised to the oocyte type control): 101 ± 2.2% | activity at 45000 µM (PfCRT^Dd2 [3]; pH 5.5, read-out: Uptake of [3H]CQ (% PfCRTDd2 control), trans-stimulation, PfCRTDd2 oocytes, total [3H]CQ transport, normalised to the oocyte type control): 100 ± 2.4% | activity at 5000 µM (PfCRT^Dd2 [3]; pH 5.5, read-out: [3H]CQ transport (% PfCRTDd2 control), trans-stimulation, PfCRTDd2, trans-stimulation, [test solute]i = 5 mM (injected), PfCRT-mediated component (background subtracted), mean ± SEM, SEM): 99 ± 3.4% | activity at 45000 µM (PfCRT^Dd2 [3]; pH 5.5, read-out: [3H]CQ transport (% PfCRTDd2 control), trans-stimulation, PfCRTDd2, trans-stimulation, PfCRT-mediated component (background subtracted), mean ± SEM, SEM): 98 ± 3.7% | inhibition at 500 µM (PfCRT^3D7 [4]; [7]): 101 ± 4.8% | inhibition at 1000 µM (PfCRT^3D7 [4]; [7]): 99 ± 3.6% | inhibition at 2000 µM (PfCRT^3D7 [4]; [7]): 99 ± 4.7% | inhibition at 500 µM (PfCRT^3D7 [4]; [8]): 2.6 ± 0.04% | inhibition at 1000 µM (PfCRT^3D7 [4]; [8]): 2.1 ± 0.01% | inhibition at 2000 µM (PfCRT^3D7 [4]; [8]): 2.6 ± 0.04% | Tested as potential co-substrate but not required for influx of VF-6 via PfCRT into the oocyte (PfCRT [5]): X | Tested as potential co-substrate but not required for influx of VF-6 via PfCRT into the oocyte (PfCRT [6]): X

Source: article PMC7413254 (Nature Communications, 2020)
